Experimental data from article PMC12040169 (PLOS Biology, 2025).

Key:
[1] = system: T1, C. trachomatis L2/434/Bu expressing GFP (CTL2-GFP); test: microbe, parasite or virus in culture; parameters: C. trachomatis total inclusion area by high-content imaging, normalised to DMSO; conditions: Chlamydia trachomatis, HeLa, 28.5 h; total inclusion area; read-out: % of control remaining
T1 construct: L2/434/Bu GFP intracellular growth in HeLa cells
From the text: We screened a library of 36,785 small molecules displaying drug-like properties and covering a wide chemical space (Fig 1A and S2A Data). In this process, we also complemented the assay described above with an imaging-based readout (Fig 1B). After measurements of bulk GFP and resorufin fluorescence, cells were fixed, stained with the DNA dye Hoechst, and imaged at a high-content imaging platform to detect chlamydial inclusions (GFP) and host cell nuclei (Hoechst). The total area and number of inclusions in individual wells and the number of nuclei then served as additional proxies for chlamydial growth and host cell viability. […] MICs were calculated as described above.

[2] = system: T2, CTL2-GFP (C. trachomatis L2/434/Bu, GFP-expressing); test: microbe, parasite or virus in culture; parameters: Intracellular C. trachomatis growth in HeLa cells, bulk GFP fluorescence relative to DMSO; conditions: Chlamydia trachomatis, HeLa, 28.5 h; bulk GFP, mean of 2; read-out: % of control remaining
T2 construct: L2/434/Bu, GFP-expressing
Description: MICs were calculated as described above.

[3] = in vitro; parameters: Viability of infected HeLa host cells, resazurin conversion, bulk resorufin fluorescence relative to DMSO; conditions: human, hela cells; bulk resorufin, mean of 2
[4] = in vitro; conditions: human, hela cells, % viability

| SMILES | activity at 1 µM [1] | activity at 5 µM [1] | activity at 10 µM [1] | activity at 1 µM [2] | activity at 5 µM [2] | activity at 10 µM [2] | viability at 28.5 h, 1 µM [3] | viability at 28.5 h, 5 µM [3] | viability at 28.5 h, 10 µM [3] | viability at 28.5 h, 10 µM ([4]; bulk resorufin, single well) | viability at 28.5 h, 10 µM [4] |
| --- | --- | --- | --- | --- | --- | --- | --- | --- | --- | --- | --- |
| COc1ccc(OC)c(Nc2nc(NCC3CCCO3)c3ccccc3n2)c1 (stereo not drawn) [CBK268403C] | 73.4% | 61% | 10.2% | 127% | 105% | 26.6% | 97.5% | 96.9% | 99.1% | – | – |
| CC(C)(CN)CN(Cc1c[nH]c(-c2ccccc2)n1)C(=O)Nc1ccc(C(C)(C)C)cc1 [CBK002462C] | 106% | 55.9% | 29% | 139% | 101% | 29.5% | 91.6% | 89.2% | 72.5% | – | – |
| Cc1nn(C)c(N2CCN(C(=O)OC(C)(C)C)CC2)c1N [CBK034182] | 122% | 92% | 53.1% | 120% | 91.7% | 38.1% | 90.6% | 94.8% | 88.5% | – | – |
| Cc1ccc(OCC(O)CN2CCN(c3nc(-c4ccccc4)ns3)CC2)c([N+](=O)[O-])c1 (stereo not drawn) [CBK074696] | 113% | 55.9% | 68.2% | 147% | 120% | 133% | 104% | 99.5% | 102% | – | – |
| N#Cc1c(Nc2cccc(C(F)(F)F)c2)sc(C(=O)c2ccc3c(c2)OCO3)c1N [CBK074399] | 2.52% | 2.64% | 6.62% | 10.1% | 11.2% | 17.7% | 87.7% | 85.9% | 81.1% | – | – |
| CC(C)(N)CNC(=O)c1cc(C(C)(C)C)nn1Cc1ccc(Cl)cc1Cl [CBK107296] | 87.7% | 54.2% | 26.9% | 115% | 76.6% | 36% | 91.1% | 95.2% | 93.8% | – | – |
| c1ccc(CNc2nnc(-c3ccccc3)s2)cc1 [CBK074928] | 68.4% | 34.4% | 26.9% | 92.7% | 77.6% | 65.1% | 95% | 91.9% | 104% | – | – |
| Cc1cc(C)nc(NC(=N)NCCc2c[nH]c3ccccc23)n1 [CBK266321] | 75.6% | 44.4% | 14.7% | 89.2% | 67.2% | 37.1% | 109% | 98.8% | 81.2% | – | – |
| O=C(NCc1ccc([N+](=O)[O-])cc1)c1cccnc1NCc1ccc2c(c1)OCO2 [CBK153436] | 65.8% | 65.9% | 38.2% | 113% | 68.2% | 25.1% | 103% | 109% | 109% | – | – |
| COc1ccc2[nH]cc(CCNC(=O)c3ccc(Cl)c(Cl)c3)c2c1 [CBK115870] | 109% | 78.8% | 40.9% | 132% | 66.5% | 33.8% | 93.3% | 88.8% | 92.1% | – | – |
| O=C(NCCc1c[nH]c2ccc(Cl)cc12)c1ccc(Cl)cc1Cl [CBK159750] | 91.9% | 68.5% | 6.32% | 88% | 40.4% | 8.46% | 95.1% | 93.9% | 98.4% | – | – |
| COc1cc(/C=C2/C(=O)NC(=O)N(c3ccccc3)C2=O)cc(Cl)c1O [CBK263361] | – | – | – | – | – | – | – | – | – | 93.3% | – |
| CCn1nc2c(c1C(=O)Nc1cccc(CCc3ccncc3)c1)CCCC2 [CBK285561] | – | – | – | – | – | – | – | – | – | – | 87.5% |
| COc1cccc(C2(NC(=O)c3cnsc3)CCCC2)c1 [CBK283611] | – | – | – | – | – | – | – | – | – | – | 94.9% |
| COc1cc(C#N)ccc1Oc1ccc([N+](=O)[O-])cc1C(F)(F)F [CBK002544] | – | – | – | – | – | – | – | – | – | – | 104% |
| COc1ccc(C(=O)N2CCC3(CCCN(CCc4c[nH]c5ccccc45)C3)C2)cc1OC (stereo not drawn) [CBK137143] | – | – | – | – | – | – | – | – | – | – | 89.9% |
| O=S(=O)(CCc1ccccc1)N1CCCn2nc(-c3ccncc3)cc2C1 [CBK288608] | – | – | – | – | – | – | – | – | – | – | 87.3% |
| CN(C)CCCn1c(=O)n(CC(=O)O)c(=O)c2c3c(sc21)CCC3 [CBK286783] | – | – | – | – | – | – | – | – | – | – | 110% |
| c1ccc(-c2nc3ccc(Oc4ccc5nc(-c6ccccn6)c(-c6ccccn6)nc5c4)cc3nc2-c2ccccn2)nc1 [CBK261964] | – | – | – | – | – | – | – | – | – | – | 99.6% |
| COc1cccc(CNC2CC2)c1OCc1ccccc1 [CBK270009C] | – | – | – | – | – | – | – | – | – | – | 90.6% |
| Cn1c(SCC(=O)c2ccc([N+](=O)[O-])cc2)nnc1-c1ccc(N)cc1 [CBK264843] | – | – | – | – | – | – | – | – | – | – | 97.9% |
| O=C(NC1CCCCC1)N[C@H]1CO[C@H]2[C@@H]1OC[C@@H]2n1cc(CC2CCCCC2)nn1 [CBK289510] | – | – | – | – | – | – | – | – | – | – | 75.2% |
| CCNC(=O)C1CCN(C(=O)c2coc(COc3cccc(F)c3)n2)C1 (stereo not drawn) [CBK307466] | – | – | – | – | – | – | – | – | – | – | 86.3% |
| Cc1cc(C)cc(Cn2cc(NCc3ccccc3)c(=O)[nH]c2=O)c1 [CBK288009] | – | – | – | – | – | – | – | – | – | – | 106% |
| CC(=O)N(CN1C(=O)CCC1=O)C(CC(C)C)C(=O)O (stereo not drawn) [CBK286553] | – | – | – | – | – | – | – | – | – | – | 87.7% |
| Cc1ccc(-c2noc(C(C)NC(=O)C3(Cn4ccnc4)CC3)n2)cc1 (stereo not drawn) [CBK307661] | – | – | – | – | – | – | – | – | – | – | 113% |
